According to ChEMBL document CHEMBL5338707, “Design, synthesis and bioactivity evaluation of favorable evodiamine derivative scaffold for developing cancer therapy” (Eur J Med Chem, 2022):
Active and inactive are the calls of the source. The rule behind the calls is not given here.

Experiments:
[1] = target: T1, DNA topoisomerase 1 (Homo sapiens) (UniProt P11387); assay: Inhibition of Topoisomerase 1 (unknown origin) at 25 uM incubated for 15 mins by electrophoretic analysis relative to control
T1 sequence (whole entry): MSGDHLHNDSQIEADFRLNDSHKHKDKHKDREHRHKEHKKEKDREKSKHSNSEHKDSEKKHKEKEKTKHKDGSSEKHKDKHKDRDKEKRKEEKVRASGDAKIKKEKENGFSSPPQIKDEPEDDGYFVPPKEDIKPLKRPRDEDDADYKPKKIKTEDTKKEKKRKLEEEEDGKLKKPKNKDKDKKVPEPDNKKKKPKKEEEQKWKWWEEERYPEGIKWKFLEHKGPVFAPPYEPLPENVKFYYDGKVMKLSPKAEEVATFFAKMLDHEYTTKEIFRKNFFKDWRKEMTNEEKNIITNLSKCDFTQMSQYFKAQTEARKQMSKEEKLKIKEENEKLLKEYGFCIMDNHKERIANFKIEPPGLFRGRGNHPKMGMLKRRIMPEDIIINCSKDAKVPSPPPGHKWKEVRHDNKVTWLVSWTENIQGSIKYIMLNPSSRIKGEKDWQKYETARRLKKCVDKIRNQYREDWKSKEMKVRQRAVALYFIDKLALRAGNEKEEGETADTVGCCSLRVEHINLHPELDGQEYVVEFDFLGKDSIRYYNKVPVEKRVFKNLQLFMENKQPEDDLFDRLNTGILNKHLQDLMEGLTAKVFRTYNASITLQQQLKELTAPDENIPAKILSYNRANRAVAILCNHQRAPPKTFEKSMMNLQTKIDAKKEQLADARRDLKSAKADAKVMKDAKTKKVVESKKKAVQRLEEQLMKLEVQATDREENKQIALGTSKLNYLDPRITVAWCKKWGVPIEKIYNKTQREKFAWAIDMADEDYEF

SGC-7901 [2] = assay: Induction of apoptosis in human SGC-7901 cells assessed as viable cells at 96 nM incubated for 24 hrs by AnnexinV-FITC/PI staining based flow cytometric analysis (reference value: 96.94%); assay type: functional; conditions: read-out: Activity
SGC-7901 [3] = assay: Induction of apoptosis in human SGC-7901 cells assessed as late apoptotic cells at 96 nM incubated for 24 hrs by AnnexinV-FITC/PI staining based flow cytometric analysis (reference value: 2.00%); assay type: functional
SGC-7901 [4] = assay: Induction of apoptosis in human SGC-7901 cells assessed as viable cells at 12 nM incubated for 24 hrs by AnnexinV-FITC/PI staining based flow cytometric analysis (reference value: 96.94%); assay type: functional; conditions: read-out: Activity
SGC-7901 [5] = assay: Induction of apoptosis in human SGC-7901 cells assessed as early apoptotic cells at 48 nM incubated for 24 hrs by AnnexinV-FITC/PI staining based flow cytometric analysis (reference value: 0.47%); assay type: functional
SGC-7901 [6] = assay: Induction of apoptosis in human SGC-7901 cells assessed as late apoptotic cells at 48 nM incubated for 24 hrs by AnnexinV-FITC/PI staining based flow cytometric analysis (reference value: 2.00%); assay type: functional
SGC-7901 [7] = assay: Induction of apoptosis in human SGC-7901 cells assessed as necrotic cells at 48 nM incubated for 24 hrs by AnnexinV-FITC/PI staining based flow cytometric analysis (reference value: 0.63%); assay type: functional
MGC-803 [8] = assay: Induction of apoptosis in human MGC-803 cells assessed as viable cells at 96 nM incubated for 24 hrs by AnnexinV-FITC/PI staining based flow cytometric analysis (reference value: 98.59%); assay type: functional; conditions: read-out: Activity
MGC-803 [9] = assay: Induction of apoptosis in human MGC-803 cells assessed as early apoptotic cells at 12 nM incubated for 24 hrs by AnnexinV-FITC/PI staining based flow cytometric analysis (reference value: 0.38%); assay type: functional
MGC-803 [10] = assay: Induction of apoptosis in human MGC-803 cells assessed as viable cells at 48 nM incubated for 24 hrs by AnnexinV-FITC/PI staining based flow cytometric analysis (reference value: 98.59%); assay type: functional; conditions: read-out: Activity
MGC-803 [11] = assay: Induction of apoptosis in human MGC-803 cells assessed as necrotic cells at 48 nM incubated for 24 hrs by AnnexinV-FITC/PI staining based flow cytometric analysis (reference value: 0.53%); assay type: functional
SGC-7901 [12] = assay: Cell cycle arrest in human SGC-7901 cells assessed as accumulation of cells at G0/G1 phase at 48 nM incubated for 24 hrs by PI staining based flow cytometric analysis (Rvb =84.12%); assay type: functional
SGC-7901 [13] = assay: Cell cycle arrest in human SGC-7901 cells assessed as accumulation of cells at S phase at 48 nM incubated for 24 hrs by PI staining based flow cytometric analysis (Rvb =18.41%); assay type: functional
SGC-7901 [14] = assay: Cell cycle arrest in human SGC-7901 cells assessed as accumulation of cells at G2/M phase at 3 nM incubated for 24 hrs by PI staining based flow cytometric analysis (Rvb =18.84%); assay type: functional
SGC-7901 [15] = assay: Cell cycle arrest in human SGC-7901 cells assessed as accumulation of cells at G2/M phase at 12 nM incubated for 24 hrs by PI staining based flow cytometric analysis (Rvb =18.84%); assay type: functional
MGC-803 [16] = assay: Cell cycle arrest in human MGC-803 cells assessed as accumulation of cells at G2/M phase at 48 nM incubated for 24 hrs by PI staining based flow cytometric analysis (Rvb =15.42%); assay type: functional
MGC-803 [17] = assay: Cell cycle arrest in human MGC-803 cells assessed as accumulation of cells at S phase at 3 nM incubated for 24 hrs by PI staining based flow cytometric analysis (Rvb =7.84%); assay type: functional
MGC-803 [18] = assay: Cell cycle arrest in human MGC-803 cells assessed as accumulation of cells at S phase at 12 nM incubated for 24 hrs by PI staining based flow cytometric analysis (Rvb =7.84%); assay type: functional
MGC-803 [19] = assay: Antiproliferative activity against human MGC-803 cells assessed as inhibition of colony formation at low concentration incubated for 1 to 2 weeks by crystal violet staining based analysis; assay type: functional, cell-based; conditions: time 1-2 weeks
MGC-803 [20] = assay: Antimigratory activity against human MGC-803 cells assessed as decrease in wound closure rate at 3 to 48 nM incubated for 24 hrs by wound healing assay; assay type: functional, cell-based; conditions: dose 3-48 nM
MGC-803 [21] = assay: Antimigratory activity against human MGC-803 cells assessed as reduction in migration ability at 3 to 48 nM incubated for 24 hrs by transwell migration assay; assay type: functional, cell-based; conditions: dose 3-48 nM
MGC-803 [22] = assay: Antimigratory activity against human MGC-803 cells assessed as reduction in number of migrating cells at 48 nM incubated for 24 hrs by transwell migration assay relative to control; assay type: functional; set-up: scale not given: the % may be the effect or the level left
SGC-7901 [23] = assay: Antiinvasive activity against human SGC-7901 cells assessed as reduction in number of invading cells at 48 nM incubated for 48 hrs by transwell invasion assay relative to control; assay type: functional; set-up: scale not given: the % may be the effect or the level left
MGC-803 [24] = assay: Antiinvasive activity against human MGC-803 cells assessed as reduction in number of invading cells at 48 nM incubated for 48 hrs by transwell invasion assay relative to control; assay type: functional; set-up: scale not given: the % may be the effect or the level left
[25] = Half-life in rat at 50 mg/kg, ip measured at 0.25 to 24 hrs by LC-MS analysis; assay type: ADME, organism-based; conditions: in vivo, time 0.25-24 hrs
[26] = Tmax in rat at 50 mg/kg, ip measured at 0.25 to 24 hrs by LC-MS analysis; assay type: ADME, organism-based; conditions: in vivo, time 0.25-24 hrs

For `O=C1c2cc(F)ccc2N(c2cccc(F)c2)C2c3[nH]c4ccc(O)cc4c3CCN12` (configuration not stated), the inhibition [1] was 55.1%, the viability at 0.096 µM (SGC-7901 [2]) was 69.6% and the Activity (SGC-7901 [3]) was 26.02%. For the same compound, the viability at 0.012 µM (SGC-7901 [4]) was 94.7%, the Activity (SGC-7901 [5]) was 1.4% and the Activity (SGC-7901 [6]) was 8.14%. It also gave an Activity (SGC-7901 [7]) of 0.86%, a viability at 0.096 µM (MGC-803 [8]) of 74.4% and an Activity (MGC-803 [9]) of 1.28%. It also gave a viability at 0.048 µM (MGC-803 [10]) of 86.2%, an Activity (MGC-803 [11]) of 2.36% and an Activity (SGC-7901 [12]) of 6.5%. It also gave an Activity (SGC-7901 [13]) of 7.12%, an Activity (SGC-7901 [14]) of 16.45% and an Activity (SGC-7901 [15]) of 19.72%. The Activity (MGC-803 [16]) was 86.57%, the Activity (MGC-803 [17]) was 7.46% and the Activity (MGC-803 [18]) was 8.14%. For the same compound, the Activity (MGC-803 [19]) was “Active”, the Activity (MGC-803 [20]) was “Active” and the Activity (MGC-803 [21]) was “Active”. It also gave an Activity (MGC-803 [22]) of 36.03%, an Activity (SGC-7901 [23]) of 12.09% and an Activity (MGC-803 [24]) of 37.11%. It also gave a half-life [25] of 2.88 h and a Tmax [26] of 2.5 h.

For `CC(=O)Oc1ccc2[nH]c3c(c2c1)CCN1C(=O)c2cc(F)ccc2N(c2cccc(F)c2)C31` (configuration not stated), the inhibition [1] was 70.5%, the viability at 0.096 µM (SGC-7901 [2]) was 71% and the Activity (SGC-7901 [3]) was 23.52%. For the same compound, the viability at 0.012 µM (SGC-7901 [4]) was 91.5%, the Activity (SGC-7901 [5]) was 2.58% and the Activity (SGC-7901 [6]) was 14.74%. For the same compound, the Activity (SGC-7901 [7]) was 2.12%, the viability at 0.096 µM (MGC-803 [8]) was 60% and the Activity (MGC-803 [9]) was 2.26%. For the same compound, the viability at 0.048 µM (MGC-803 [10]) was 82.2%, the Activity (MGC-803 [11]) was 1.51% and the Activity (SGC-7901 [12]) was 22.01%. For the same compound, the Activity (SGC-7901 [13]) was 24.58%, the Activity (SGC-7901 [14]) was 20.47% and the Activity (SGC-7901 [15]) was 18.95%. The Activity (MGC-803 [16]) was 63.34%, the Activity (MGC-803 [17]) was 7.79% and the Activity (MGC-803 [18]) was 6.63%. For the same compound, the Activity (MGC-803 [19]) was “Active”, the Activity (MGC-803 [20]) was “Active” and the Activity (MGC-803 [21]) was “Active”. The Activity (MGC-803 [22]) was 38.93%, the Activity (SGC-7901 [23]) was 8.83% and the Activity (MGC-803 [24]) was 29.21%. For the same compound, the half-life [25] was 3.87 h and the Tmax [26] was 1 h.
